Laboratory results: patent US8969325B2, “TRPV1 antagonists” (AbbVie Inc., priority 2011, dated 2015)

Key:
human TRPV1 [1] = molecular target: T1, human TRPV1 (Homo sapiens (Human), UniProt Q8NER1); experiment: Capsaicin Activation Assay (intracellular Ca2+, FLIPR); assay type: cell-based; details: recombinant HEK293 cells expressing hTRPV1, 50 nM capsaicin
Method in brief: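 Stably transfected HEK293 cells expressing human TRPV1 cDNA, plated the day before in poly-D-lysine plates. Compounds serially diluted from 10 mM DMSO stocks; intracellular Ca2+ fluorescence read on FLIPR at 1 to 5 second intervals.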

human TRPV1 [2] = molecular target: T1, human TRPV1; experiment: Acid Activation Assay (pH 5.0, intracellular Ca2+, FLIPR); assay type: cell-based; details: percentage of the maximal pH 5.0-induced response remaining; recombinant HEK293 hTRPV1 cells; maximum concentration tested 37.5 μM
Method in brief: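 HEK293 cells stably expressing recombinant hTRPV1, loaded with Calcium-4 dye 90-120 min at 25° C. Compounds added over a 12-point half-log range (top 37.5 μM), then pH 5.0 DPBS/MES challenge after 3 min; FLIPR peak fluorescence over baseline given as % of maximal pH 5.0 response.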

T1 sequence (Q8NER1 whole entry): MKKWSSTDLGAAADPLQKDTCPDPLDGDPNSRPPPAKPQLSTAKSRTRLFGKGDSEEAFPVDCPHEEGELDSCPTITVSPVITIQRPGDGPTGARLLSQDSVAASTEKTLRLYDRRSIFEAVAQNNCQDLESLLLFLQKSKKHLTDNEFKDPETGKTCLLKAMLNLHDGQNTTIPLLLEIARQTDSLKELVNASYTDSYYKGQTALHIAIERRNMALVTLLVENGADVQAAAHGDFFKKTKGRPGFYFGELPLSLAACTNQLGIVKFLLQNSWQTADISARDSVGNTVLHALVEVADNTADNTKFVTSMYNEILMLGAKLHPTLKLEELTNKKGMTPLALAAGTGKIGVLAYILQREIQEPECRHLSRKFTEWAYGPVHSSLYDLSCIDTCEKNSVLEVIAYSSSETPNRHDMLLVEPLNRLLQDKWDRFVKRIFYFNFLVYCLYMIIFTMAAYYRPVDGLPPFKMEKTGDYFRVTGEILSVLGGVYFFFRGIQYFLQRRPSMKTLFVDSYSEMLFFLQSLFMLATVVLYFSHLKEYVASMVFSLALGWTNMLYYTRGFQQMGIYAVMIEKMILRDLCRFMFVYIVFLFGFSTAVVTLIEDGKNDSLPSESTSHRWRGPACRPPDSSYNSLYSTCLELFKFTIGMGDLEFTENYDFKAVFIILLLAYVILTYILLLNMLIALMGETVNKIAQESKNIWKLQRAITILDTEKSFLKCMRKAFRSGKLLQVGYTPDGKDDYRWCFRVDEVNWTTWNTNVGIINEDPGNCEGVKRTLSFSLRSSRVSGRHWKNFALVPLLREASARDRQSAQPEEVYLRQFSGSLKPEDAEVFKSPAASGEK

Cn1c(=O)ccc2c(NC(=O)N[C@@H]3CC(C)(C)Oc4c(F)cccc43)cccc21 [Example 94, 1-[(4R)-8-fluoro-2,2-dimethyl-3,4-dihydro-2H-chromen-4-yl]-3-(1-methyl-2-oxo-1,2-dihydroquinolin-5-yl)urea]
IC50 (human TRPV1 [1]): 0.019 µM
human TRPV1 H^+ (max % remain) (human TRPV1 [2]): 53%

Cn1c(=O)ccc2c(NC(=O)N[C@@H]3CC(CF)(CF)Oc4c(F)cccc43)cccc21 [Example 95, 1-[(4R)-8-fluoro-2,2-bis(fluoromethyl)-3,4-dihydro-2H-chromen-4-yl]-3-(1-methyl-2-oxo-1,2-dihydroquinolin-5-yl)urea]
IC50 (human TRPV1 [1]): 0.063 µM
human TRPV1 H^+ (max % remain) (human TRPV1 [2]): 54%

Cn1c(=O)ccc2c(NC(=O)N[C@@H]3CCc4cc(Cl)ccc43)cccc21 [Example 96, 1-[(1R)-5-chloro-2,3-dihydro-1H-inden-1-yl]-3-(1-methyl-2-oxo-1,2-dihydroquinolin-5-yl)urea]
IC50 (human TRPV1 [1]): 0.008 µM
human TRPV1 H^+ (max % remain) (human TRPV1 [2]): 37%

Cn1c(=O)ccc2c(NC(=O)N[C@@H]3CCOc4c3cccc4C(F)(F)F)cccc21 [Example 97, 1-(1-methyl-2-oxo-1,2-dihydroquinolin-5-yl)-3-[(4R)-8-(trifluoromethyl)-3,4-dihydro-2H-chromen-4-yl]urea]
IC50 (human TRPV1 [1]): 0.017 µM
human TRPV1 H^+ (max % remain) (human TRPV1 [2]): 26%

Cn1c(=O)ccc2c(NC(=O)N[C@H]3CC(C)(C)Oc4ccc(F)cc43)cccc21 [Example 98, 1-[(4S)-6-fluoro-2,2-dimethyl-3,4-dihydro-2H-chromen-4-yl]-3-(1-methyl-2-oxo-1,2-dihydroquinolin-5-yl)urea]
IC50 (human TRPV1 [1]): 3.7 µM
human TRPV1 H^+ (max % remain) (human TRPV1 [2]): 58%

O=C(Nc1cccc2[nH]c(=O)ccc12)N[C@@H]1CC(CF)(CF)Oc2cc(Cl)ccc21 [Example 99, 1-[(4R)-7-chloro-2,2-bis(fluoromethyl)-3,4-dihydro-2H-chromen-4-yl]-3-(2-oxo-1,2-dihydroquinolin-5-yl)urea]
IC50 (human TRPV1 [1]): 0.091 µM
human TRPV1 H^+ (max % remain) (human TRPV1 [2]): 0%

CC1(C)C[C@@H](NC(=O)Nc2ccc3c(c2)NC(=O)CO3)c2cccc(F)c2O1 [Example 100, 1-[(4R)-8-fluoro-2,2-dimethyl-3,4-dihydro-2H-chromen-4-yl]-3-(3-oxo-3,4-dihydro-2H-1,4-benzoxazin-6-yl)urea]
IC50 (human TRPV1 [1]): 0.31 µM
human TRPV1 H^+ (max % remain) (human TRPV1 [2]): 95%

CCC1(CC)C[C@@H](NC(=O)Nc2ccc3c(c2)NC(=O)CO3)c2cccc(F)c2O1 [Example 101, 1-[(4R)-2,2-diethyl-8-fluoro-3,4-dihydro-2H-chromen-4-yl]-3-(3-oxo-3,4-dihydro-2H-1,4-benzoxazin-6-yl)urea]
IC50 (human TRPV1 [1]): 0.095 µM
human TRPV1 H^+ (max % remain) (human TRPV1 [2]): 105%

CCC1(CC)C[C@@H](NC(=O)Nc2ccc3c(c2)NC(=O)CO3)c2ccccc2O1 [Example 102, 1-[(4R)-2,2-diethyl-3,4-dihydro-2H-chromen-4-yl]-3-(3-oxo-3,4-dihydro-2H-1,4-benzoxazin-6-yl)urea]
IC50 (human TRPV1 [1]): 0.044 µM
human TRPV1 H^+ (max % remain) (human TRPV1 [2]): 99%

CCC1(CC)C[C@@H](NC(=O)Nc2ccc3c(c2)NC(=O)CO3)c2ccc(C(F)(F)F)cc2O1 [Example 103, 1-[(4R)-2,2-diethyl-7-(trifluoromethyl)-3,4-dihydro-2H-chromen-4-yl]-3-(3-oxo-3,4-dihydro-2H-1,4-benzoxazin-6-yl)urea]
IC50 (human TRPV1 [1]): 0.11 µM
human TRPV1 H^+ (max % remain) (human TRPV1 [2]): 75%

CCC1(CC)C[C@@H](NC(=O)Nc2ccc3c(c2)NC(=O)CO3)c2ccc(Cl)cc2O1 [Example 104, 1-[(4R)-7-chloro-2,2-diethyl-3,4-dihydro-2H-chromen-4-yl]-3-(3-oxo-3,4-dihydro-2H-1,4-benzoxazin-6-yl)urea]
IC50 (human TRPV1 [1]): 0.2 µM
human TRPV1 H^+ (max % remain) (human TRPV1 [2]): 80%

CCC1(CC)C[C@@H](NC(=O)Nc2ccc3c(c2)NC(=O)CO3)c2ccc(Cl)c(Cl)c2O1 [Example 105, 1-[(4R)-7,8-dichloro-2,2-diethyl-3,4-dihydro-2H-chromen-4-yl]-3-(3-oxo-3,4-dihydro-2H-1,4-benzoxazin-6-yl)urea]
IC50 (human TRPV1 [1]): 0.46 µM
human TRPV1 H^+ (max % remain) (human TRPV1 [2]): 79%

CC1(C)C[C@@H](NC(=O)Nc2ccc3c(c2)NC(=O)CO3)c2ccc(C(F)(F)F)cc2O1 [Example 106, 1-[(4R)-2,2-dimethyl-7-(trifluoromethyl)-3,4-dihydro-2H-chromen-4-yl]-3-(3-oxo-3,4-dihydro-2H-1,4-benzoxazin-6-yl)urea]
IC50 (human TRPV1 [1]): 0.094 µM
human TRPV1 H^+ (max % remain) (human TRPV1 [2]): 98%

CCCC1(CCC)C[C@@H](NC(=O)Nc2ccc3c(c2)NC(=O)CO3)c2cc(F)ccc2O1 [Example 107, 1-[(4R)-6-fluoro-2,2-dipropyl-3,4-dihydro-2H-chromen-4-yl]-3-(3-oxo-3,4-dihydro-2H-1,4-benzoxazin-6-yl)urea]
IC50 (human TRPV1 [1]): 0.4 µM
human TRPV1 H^+ (max % remain) (human TRPV1 [2]): 113%

O=C1COc2ccc(NC(=O)N[C@@H]3CC4(CCC4)Oc4ccc(F)cc43)cc2N1 [Example 108, 1-[(4R)-6-fluoro-3,4-dihydrospiro[chromene-2,1′-cyclobutan]-4-yl]-3-(3-oxo-3,4-dihydro-2H-1,4-benzoxazin-6-yl)urea]
IC50 (human TRPV1 [1]): 0.24 µM
human TRPV1 H^+ (max % remain) (human TRPV1 [2]): 104%

CCC1(CC)C[C@@H](NC(=O)Nc2ccc3c(c2)NC(=O)CO3)c2cc(F)ccc2O1 [Example 109, 1-[(4R)-2,2-diethyl-6-fluoro-3,4-dihydro-2H-chromen-4-yl]-3-(3-oxo-3,4-dihydro-2H-1,4-benzoxazin-6-yl)urea]
IC50 (human TRPV1 [1]): 0.13 µM
human TRPV1 H^+ (max % remain) (human TRPV1 [2]): 92%

CCCC1(CCC)C[C@@H](NC(=O)Nc2ccc3c(c2)NC(=O)CO3)c2cccc(F)c2O1 [Example 110, 1-[(4R)-8-fluoro-2,2-dipropyl-3,4-dihydro-2H-chromen-4-yl]-3-(3-oxo-3,4-dihydro-2H-1,4-benzoxazin-6-yl)urea]
IC50 (human TRPV1 [1]): 0.15 µM
human TRPV1 H^+ (max % remain) (human TRPV1 [2]): 111%

CCC1(CC)C[C@@H](NC(=O)Nc2ccc3c(c2)NC(=O)CO3)c2ccc(OC(F)(F)F)cc2O1 [Example 111, 1-[(4R)-2,2-diethyl-7-(trifluoromethoxy)-3,4-dihydro-2H-chromen-4-yl]-3-(3-oxo-3,4-dihydro-2H-1,4-benzoxazin-6-yl)urea]
IC50 (human TRPV1 [1]): 0.19 µM
human TRPV1 H^+ (max % remain) (human TRPV1 [2]): 71%

CC1(C)C[C@@H](NC(=O)Nc2ccc3c(c2)NC(=O)CO3)c2ccccc2O1 [Example 112, 1-[(4R)-2,2-dimethyl-3,4-dihydro-2H-chromen-4-yl]-3-(3-oxo-3,4-dihydro-2H-1,4-benzoxazin-6-yl)urea]
IC50 (human TRPV1 [1]): 0.44 µM
human TRPV1 H^+ (max % remain) (human TRPV1 [2]): 101%

CC1(C)C[C@@H](NC(=O)Nc2ccc3c(c2)NC(=O)CO3)c2cc(F)ccc2O1 [Example 113, 1-[(4R)-6-fluoro-2,2-dimethyl-3,4-dihydro-2H-chromen-4-yl]-3-(3-oxo-3,4-dihydro-2H-1,4-benzoxazin-6-yl)urea]
IC50 (human TRPV1 [1]): 0.77 µM
human TRPV1 H^+ (max % remain) (human TRPV1 [2]): 102%

CC1(C)C[C@@H](NC(=O)Nc2ccc3c(c2)NC(=O)CO3)c2ccc(Cl)cc2O1 [Example 114, 1-[(4R)-7-chloro-2,2-dimethyl-3,4-dihydro-2H-chromen-4-yl]-3-(3-oxo-3,4-dihydro-2H-1,4-benzoxazin-6-yl)urea]
IC50 (human TRPV1 [1]): 0.056 µM
human TRPV1 H^+ (max % remain) (human TRPV1 [2]): 99%

O=C1COc2ccc(NC(=O)N[C@@H]3CCOc4cc(OC(F)(F)F)ccc43)cc2N1 [Example 115, 1-(3-oxo-3,4-dihydro-2H-1,4-benzoxazin-6-yl)-3-[(4R)-7-(trifluoromethoxy)-3,4-dihydro-2H-chromen-4-yl]urea]
IC50 (human TRPV1 [1]): > 38 µM
human TRPV1 H^+ (max % remain) (human TRPV1 [2]): 91%

O=C1COc2ccc(NC(=O)N[C@@H]3CC(CF)(CF)Oc4c(F)cccc43)cc2N1 [Example 116, 1-[(4R)-8-fluoro-2,2-bis(fluoromethyl)-3,4-dihydro-2H-chromen-4-yl]-3-(3-oxo-3,4-dihydro-2H-1,4-benzoxazin-6-yl)urea]
IC50 (human TRPV1 [1]): 2 µM
human TRPV1 H^+ (max % remain) (human TRPV1 [2]): 99%

CC1(C)C[C@@H](NC(=O)Nc2ccc3c(c2)NC(=O)CO3)c2ccc(F)c(F)c2O1 [Example 117, 1-[(4R)-7,8-difluoro-2,2-dimethyl-3,4-dihydro-2H-chromen-4-yl]-3-(3-oxo-3,4-dihydro-2H-1,4-benzoxazin-6-yl)urea]
IC50 (human TRPV1 [1]): 0.12 µM
human TRPV1 H^+ (max % remain) (human TRPV1 [2]): 99%

O=C1COc2ccc(NC(=O)N[C@@H]3CCOc4ccc(F)cc43)cc2N1 [Example 118, 1-[(4R)-6-fluoro-3,4-dihydro-2H-chromen-4-yl]-3-(3-oxo-3,4-dihydro-2H-1,4-benzoxazin-6-yl)urea]
IC50 (human TRPV1 [1]): > 38 µM
human TRPV1 H^+ (max % remain) (human TRPV1 [2]): 101%

O=C1COc2ccc(NC(=O)N[C@@H]3CCc4cc(Cl)ccc43)cc2N1 [Example 119, 1-[(1R)-5-chloro-2,3-dihydro-1H-inden-1-yl]-3-(3-oxo-3,4-dihydro-2H-1,4-benzoxazin-6-yl)urea]
IC50 (human TRPV1 [1]): 0.17 µM
human TRPV1 H^+ (max % remain) (human TRPV1 [2]): 110%

O=C1COc2ccc(NC(=O)N[C@@H]3CCOc4c3cccc4C(F)(F)F)cc2N1 [Example 120, 1-(3-oxo-3,4-dihydro-2H-1,4-benzoxazin-6-yl)-3-[(4R)-8-(trifluoromethyl)-3,4-dihydro-2H-chromen-4-yl]urea]
IC50 (human TRPV1 [1]): 0.2 µM
human TRPV1 H^+ (max % remain) (human TRPV1 [2]): 103%

O=C1COc2ccc(NC(=O)N[C@@H]3CCOc4cc(C(F)(F)F)ccc43)cc2N1 [Example 121, 1-(3-oxo-3,4-dihydro-2H-1,4-benzoxazin-6-yl)-3-[(4R)-7-(trifluoromethyl)-3,4-dihydro-2H-chromen-4-yl]urea]
IC50 (human TRPV1 [1]): > 38 µM
human TRPV1 H^+ (max % remain) (human TRPV1 [2]): 107%

O=C1COc2ccc(NC(=O)N[C@H]3CC4(CCC4)Oc4ccc(F)cc43)cc2N1 [Example 122, 1-[(4S)-6-fluoro-3,4-dihydrospiro[chromene-2,1′-cyclobutan]-4-yl]-3-(3-oxo-3,4-dihydro-2H-1,4-benzoxazin-6-yl)urea]
IC50 (human TRPV1 [1]): > 38 µM
human TRPV1 H^+ (max % remain) (human TRPV1 [2]): 104%
